One data set concerns most microorganisms. To be noted: Sissons et al. 1996; cited from earlier work.
In data set [1] the test system is all organisms of interest. On the procedure:
Dilutions were prepared in Cationic Adjusted Mueller Hinton Broth (CAMHB). All tests were performed in microtiter plates with a total test volume of 100 μL, including diluted antimicrobial agent and inoculum. Concentrations of antimicrobial agents were prepared at 2× concentration, and 50 μL was added to each well of a microtiter plate, to which 50 μL of inoculum of the test organism was added to give the target test concentration.
Cells were subsequently centrifuged, and resuspended twice in phosphate buffered saline. The population of this bacterial suspension was determined by reading optical density at 670 nm. […] Initial concentrations were verified using the Miles and Misra drop count method. […] Incubation was at 37° C. for 16 to 20 hours.
To determine MBC values, 50 μl was removed from each well showing inhibition of growth (MIC and greater). Solutions from these inhibitory concentrations of antimicrobial agent were diluted in CAMHB to concentrations where they would no longer inhibit the growth of the test organism. Recovery counts were obtained by plating aliquots of the diluted material onto TSA plate containing 5% sheep's blood, and incubating 24 hours at 37° C.

The format of data set [2] is physicochemical. As for the experimental part:
One of the surprising findings about the temperature effects is that certain classes of polyurethanes are processable below the degradation temperature and other classes are not.
Compounding Conditions for Stable Gentian Violet:
Barrel Temperatures: • Zone 1-5=170° C. • Zone 6=175° C.,
Compounding Temperature for Degraded Gentian Violet:
Compounding was performed with Sigma Aldrich ACS grade gentian violet, lot 016K3691. HPLC analysis was performed by cutting and measuring 1 cm segments of each formulation (n=3) using the method described in Examples II and III.
The chromatograms show the stable gentian violet followed by the degraded gentian violet, at 588 nm, 253 nm, and 280 nm. The degradation peaks from the 217° C. sample are evident as the new peaks at 253 and 280 nm wavelengths. The chromatogram of the low processing temperature was identical to that of the Gentian Violet raw material.

Data set [3] can be described thus: Temperature effect (196-219 °C) on degradation of gentian violet compounded in Carbothane resin (HPLC). To be noted: compounded Carbothane resin with 0.5% GV. It counts as physicochemical. As for the experimental part:
Gentian violet contents from compounded resin and tube sample were analyzed via HPLC method. HPLC analysis on GV loaded resin or compounded pellets was performed by weighing 0.1-0.3 g, which is roughly equivalent to 10-20 pellets (depending on the weight of the raw material used) of each formulation (n=3) and digesting in THF (5 mL or 7.5 mL) in 50 mL centrifuge tubes. Samples were allowed to sit for 45 minutes, and then vortexed until all of the polymer dissolved. An equal amount of deionized (DI) water was then added (5 or 7.5 mL), and the samples were again vortexed for 5 minutes, and then centrifuged for 10 minutes. A portion of each sample was then added to an HPLC vial and capped prior to HPLC analysis. HPLC analysis was performed on an Agilent 1200 Series LC using an Agilent Eclipse XDB-CN 5μ 4.6×150 mm column with the corresponding guard column. A gradient program was run using two solvent reservoirs: 5 g of gentian violet (Sigma-Aldrich, St. […] Louis, Mo.). 1000 g of Carbothane®-3585A-B20 (Noveon, Cleveland, Ohio) resin was added in to the gentian violet/ethanol solution. The ethanol solvent was evaporated off in a chemical fume hood overnight at ambient conditions. The gentian violet coated pellets were then dried at 50° C. and 30 inches Hg for 24 hrs prior to compounding. […] The melt temperatures from each run are recorded in Table 6. […]

Data set [4] is described as follows: Temperature effect (high temperatures) on degradation of gentian violet compounded in Carbothane resin (HPLC). It is filed as physicochemical. To be noted: drop in extractable GV content. As for the experimental part: Gentian violet contents from compounded resin and tube sample were analyzed via HPLC method. HPLC analysis on GV loaded resin or compounded pellets was performed by weighing 0.1-0.3 g, which is roughly equivalent to 10-20 pellets (depending on the weight of the raw material used) of each formulation (n=3) and digesting in THF (5 mL or 7.5 mL) in 50 mL centrifuge tubes. Samples were allowed to sit for 45 minutes, and then vortexed until all of the polymer dissolved. An equal amount of deionized (DI) water was then added (5 or 7.5 mL), and the samples were again vortexed for 5 minutes, and then centrifuged for 10 minutes. A portion of each sample was then added to an HPLC vial and capped prior to HPLC analysis. HPLC analysis was performed on an Agilent 1200 Series LC using an Agilent Eclipse XDB-CN 5μ 4.6×150 mm column with the corresponding guard column. A gradient program was run using two solvent reservoirs: The sample preparation for loading GV on resin pellets is similar to EXAMPLE V. Gentian violet was purchased from (Sigma-Aldrich, St. Louis, Mo.) and Carbothane®-3585A-B20 (Noveon, Cleveland, Ohio) was used. The heating profile was varied for each run.

A value given as a limit tells only on which side of the number the result lay.

Results on 2 molecules are retold here after patent US20100268174A1, “COMBINATION OF ALCOHOL LOCK AND GENTIAN VIOLET CATHETER” (priority 2007, published 2010).

As for `CCO` [ethanol], in the data set on most microorganisms, the “concentration generally considered bactericidal” value was no less than 40% and the “concentration that inhibits the growth of most microorganisms” value is listed as 10%. In addition, the “concentration at which the solution will not inhibit microbial growth” value in data set [1] is “below 7%”. In data set [1] (for all organisms of interest), the subinhibitory concentration was determined as 5%. Moreover, in data set [1] (suggested by the Table 1 results), the “ethanol lock concentration cidal towards most commonly encountered infectious pathogens” value is on record as “above 25%”.
For the molecule `CN(C)c1ccc(C(=C2C=CC(=[N+](C)C)C=C2)c2ccc(N(C)C)cc2)cc1` [gentian violet], in data set [2], the “processing temperature at which degradation starts” value is “about 209 °C”, the “processing temperature at which extruded gentian violet was found to degrade” value is 217 °C and the “processing temperature that does not degrade gentian violet” value is “under 207 °C”. Further, the “processing temperature up to which GV content is essentially unchanged” value in data set [3] is no more than 206 °C. Besides, the “onset of degradation (processing temperature)” value in data set [3] (worse at 219° C.) turned out to be 209 °C. Also, the “temperature above which there is significant degradation of the GV” value in data set [4] is “above 220 °C”.
